# Patent US20240003908A1, “POLYOL BIOMARKERS FOR CONGENITAL DISORDERS OF GLYCOSYLATION” (Mayo Foundation for Medical Education and Research, priority 2020, published 2024)
# Where “and” joins values, the source holds several entries; their conditions need not be identical. Identical values can stand only once.
# Assays:
# [1] = tested on: child with PMM2-CDG; test: Single patient (P1) study: safety and tolerability of oral epalrestat; type: in vivo, human; conditions: for liver elastography Interquartile Range to Median ratio: normal below 25%
# Protocol: Study design: An open label, single patient (P1) compassionate use study was designed to assess the safety and tolerability of oral epalrestat therapy in a child with PMM2-CDG.
# Patient assessment: Prior to the first dose of epalrestat and at 1, 2, 3, 6, 8, 9, 12 months during treatment, concomitant medications and vital signs were recorded and the patient was evaluated using the NPCRS. In addition, blood was drawn for serum chemistry, hematology, and plasma levels of epalrestat. Urine was collected for polyol measurement at baseline and twice over the course of 12 months of therapy.
# Drug administration: Epalrestat was administered orally, 3 times per day (TID) before meals in a divided dose (0.8 mg/kg/day; 5 mg TID) of epalrestat (Ono Pharmaceuticals, Osaka, Japan) starting on Day 1 of the study.
# Safety and efficacy: Safety measures included vital signs, change in CBC, liver function (INR, bilirubin, transaminases, and albumin) in blood, change in liver elastography, and following the pharmacokinetic profile of epalrestat. The efficacy of epalrestat was studied by clinical follow up (physical exam, NPCRS, ICARS), standard laboratory tests, and transferrin glycoform analysis by mass spectrometry.
# [2] = Epalrestat plasma pharmacokinetics (LC-MS/MS) in patient P1; type: in vivo, human
# Protocol: Pharmacokinetics: Epalrestat plasma concentrations were measured using an LC-MS/MS assay that was validated according to principles outlined in FDA Guidance Documents. Epalrestat-d5 was utilized as the internal standard. The mass spectrometer was coupled to a Waters Acquity H class ultra-performance liquid chromatography system (Milford, MA). Data were acquired and analyzed with Waters MassLynx v4.1 software. The chromatographic separation of epalrestat and the internal standard was accomplished using an Agilent Infinity Lab Poroshell 120 EC-C18 column, 2.1×100 mm, 2.7 μm (ChromTech, Apple Valley, MN) with an Agilent Poroshell 120 EC-C18 precolumn, 2.1×5 mm, 2.7 μm (ChromTech). Plasma samples were analyzed after protein precipitation with methanol, concentration to dryness under nitrogen, and reconstitution in methanol:water (1:1 v/v). Pharmacokinetics were estimated by non-linear least squares regression using the program Phoenix WinNonlin.
# [3] = tested on: fibroblasts from PMM2-CDG patients; test: Sorbitol and mannitol levels (GC-MS) in fibroblasts treated with epalrestat for 5 days; type: cell-based, human; conditions: fibroblasts from 5 PMM2-CDG patients vs 5 healthy controls, 10 μM epalrestat 5 days
# Protocol: Metabolomics measurements: Fibroblasts derived from patients carrying selected heterozygous mutations in PMM2 (R141H/F119L, R141H/E139K, R141H/N216I, and R141H/F183S) and healthy controls were cultured according to a protocol described elsewhere (Radenkovic et al., Am J Hum Genet. 2019, 104(5):835-846). Cells were grown in specialized medium and treated with 10 μM epalrestat (Iyer et al., supra) for 5 days with two changes of medium. Non-treated fibroblasts from both groups were used as negative controls. Global metabolomic changes were probed by LC/MS.
# Polyols also were analyzed by GC due to the inability of LC/MS to distinguish between the same sized metabolites ([…], GLC1P, GLC6P, sorbitol/mannitol/galactitol, etc.) (Radenkovic et al., supra).
# [4] = patient P1, throughout the study
compound,measurement,setting,value
CC(/C=C1\SC(=S)N(CC(=O)O)C1=O)=C\c1ccccc1 [epalrestat],liver elastography Interquartile Range to Median ratio,"[1]; after 1 month of therapy, prior to therapy 14%",12%
same,liver elastography Interquartile Range to Median ratio,[1]; at 6 months,20%
same,liver elastography Interquartile Range to Median ratio,[1]; at 12 months,8%
same,liver elastography,[1]; patient P1,remained normal
same,adverse events,"[1]; patient P1, 0.27 mg/kg three times a day, 12 months",No adverse events
same,"CBC with differential, transaminases, bilirubin, and albumin",[1]; [4],remained normal
same,antithrombin III levels and International normalized ratio (INR),[1]; [4],remained at normal levels
same,vital signs,[1]; [4],remained normal
same,concentration at 8 h,"[2]; human, plasma, oral, 5 mg, patient P1, after eight hours, read-out: trough level before the next dose",23.4 ng/mL and 100 nM
same,AUC,"[2]; human, plasma, oral, patient P1, after a 5 mg dose, read-out: systemic exposure (AUC)",2790 ng·h/mL
same,half-life,"[2]; human, plasma, po, 5 mg, patient P1, oral dose, plasma, read-out: t½ (converted)",~1.04 h
same,oral clearance,"[2]; patient P1, after a 5 mg dose",1.8 L/h
same,time of peak concentration after administration,"[2]; patient P1, oral 0.27 mg/kg (5 mg) dose",one
same,peak concentration in plasma,"[2]; patient P1, oral 0.27 mg/kg (5 mg) dose, 0.27 mg/kg",1125 ng/ml and 3.5 μM
same,plasma concentration over time profile,"[2]; patient P1, oral dose",rapid absorption and elimination
same,t½,"[2]; patient P1, oral dose, plasma",1 to 2 h
same,"sorbitol concentration, mean ratio after treatment","[3]; 1.4 prior to treatment, p=0.00013",1.25
same,"mannitol concentration, mean ratio after treatment","[3]; 1.5 prior to treatment, p=0.064",1.2
